Values quoted from earlier work, collected in patent publication US6593300B1, “(3R)-3-amino-4-carboxybutyraldehyde derivatives inhibiting the release of interleukin-1/beta” (Gyogyszerkutato Intezet Kft., priority 1997, dated 2003).

Legend:
[1] = target: T1, ICE (IL-1β converting enzyme) (Homo sapiens, UniProt P29466); conditions: literature reports
T1 sequence (P29466 120-297): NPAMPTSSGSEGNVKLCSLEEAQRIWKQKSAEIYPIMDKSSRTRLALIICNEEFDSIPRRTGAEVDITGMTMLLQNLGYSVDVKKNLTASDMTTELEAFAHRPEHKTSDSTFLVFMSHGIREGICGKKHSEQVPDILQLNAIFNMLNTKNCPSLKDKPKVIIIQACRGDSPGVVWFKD
T1 sequence (P29466 317-404): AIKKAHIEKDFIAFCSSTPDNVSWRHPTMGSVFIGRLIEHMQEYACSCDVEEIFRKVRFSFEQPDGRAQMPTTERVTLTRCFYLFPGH

ICE = target: T2, ICE (Mus musculus, UniProt P29452); conditions: "tissue chamber" model, LPS induced fever or septic shock models
T2 construct: in the mouse, in the “tissue chamber” model as well as in lipopolysaccharide (LPS) induced fever or septic shock models; host or cells: mouse (whole animal, endogenous enzyme)
T2 sequence (P29452 119-296 limits assumed): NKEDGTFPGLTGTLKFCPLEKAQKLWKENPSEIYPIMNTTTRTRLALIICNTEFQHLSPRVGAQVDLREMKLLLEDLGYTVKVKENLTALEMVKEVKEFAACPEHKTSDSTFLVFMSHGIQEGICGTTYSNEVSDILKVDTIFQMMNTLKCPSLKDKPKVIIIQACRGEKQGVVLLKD
T2 sequence (P29452 315-402 limits assumed): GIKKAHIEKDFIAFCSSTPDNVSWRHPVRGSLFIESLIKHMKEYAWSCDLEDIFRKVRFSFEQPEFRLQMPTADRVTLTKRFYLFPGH

In the case of `CC(C)C[C@H](NC(=O)[C@H]1O[C@@H]1C(=O)O)C(=O)NCCCCN=C(N)N` [Example E64], the ICE inhibiting effect [1] is listed as “not inhibited”.
In the case of `O=C(O)C[C@H](NC(=O)OCc1ccccc1)C(=O)COC(=O)c1c(Cl)cccc1Cl` [Z-Asp-CH2DCB, Z-NH—CH(CH2COOH)—CO—CH2DCB], the ICE inhibiting effect [1] is listed as “significant ICE inhibiting effect”.
In the case of `O=C(O)CC(CC(=O)COC(=O)c1c(Cl)cccc1Cl)NC(=O)OCc1ccccc1` (centres unmarked) [Z-AhAsp-CH2DCB, Z-NH—CH(CH2COOH)—CH2—CO—CH2DCB], the ICE inhibiting effect [1] is given as “ineffective”.
For `O=c1oc(Cl)c(Cl)c2ccccc12` [3,4-dichloro-isocoumarine], the ICE inhibiting effect [1] is listed as “inhibited”.
In the case of “Ac-Tyr-Val-Ala-Asp-H: first reversible inhibitor of ICE, tetrapeptide aldehyde”, the in vivo efficacy (ICE) is given as “confirmed”.
